Legend:
Assay in all cases: Phosphomimetic ProP-PD selection with NGS
Scribble PDZ3 = assay type: binding, human; conditions: bait Scribble PDZ3
Experimental: (§1) Phage selections were carried out for four rounds following a protocol by Huang and Sidhu (Huang & Sidhu, 2011) with minor modifications. Non‐specific binding phage was removed by pre‐selections against immobilized GST throughout the selection. The selections against the (pre‐)phosphorylated wild‐type library were performed in 50 mM HEPES (pH 7.4) and 150 mM NaCl (HBS) following the same procedure after pre‐phosphorylation of the library.
(§2) • Immobilize proteins (15 μg in 100 μl PBS) in a 96‐well MaxiSorp microtiter plate (NUNC) overnight at 4°C. • Start a 2YT culture of E. coli Omnimax supplemented with 100 μg/ml tetracycline to retain the F pilus epitope. • Block the wells with 200 μl 0.5% BSA in PBS for 2 h at 4°C. • Precipitate naïve phage library (10^11 cfu per selection) or amplified phage pool from the previous round of selection by adding one‐fifth the volume of PEG/NaCl. • Incubate on ice for 10 min, and pellet precipitated phage by centrifugation at 5,300 g for 15 min. Resuspend the phage pellet in 100 μl PBS per selection. • Add 100 μl of phage solution to the GST‐coated pre‐selection wells and incubate for 1 h. • Transfer the phage solution to the immobilized target proteins and allow it to bind for 2 h at 8°C. • Wash the plate four times with 200 μl cold wash buffer (PBS, 0.05% Tween‐20). • Elute bound phage by incubation with 100 μl log phase (0.6–0.8 OD600) E. coli Omnimax for 30 min at 37°C with shaking (200 RPM). • Add 10^12 cfu/ml M13K07 helper phage for hyperinfection of the bacteria and incubate as above for 45 min. • Transfer the bacterial culture to 10 ml 2YT supplemented with 50 μg/ml carbenicillin, 25 μg/ml kanamycin, and 300 μM IPTG and incubate overnight at 37°C while shaking. • Perform phage pool ELISA to monitor the progress of the selection as described previously (Huang & Sidhu, 2011).
(§3) The naïve library and the enriched phage pools of the third day of selection were amplified and barcoded by PCR and analyzed by NGS as described elsewhere (McLaughlin & Sidhu, 2013; Ivarsson et al, 2014). The reads were demultiplexed using the barcode sequences and filtered by discarding sequences with a Phred quality score under 30. Sequences were mapped to the original library using Bowtie (Langmead et al, 2009) with two mismatches between reads and library sequence. Nucleotide mutations leading to amino acid substitutions were subsequently removed. Cutoff values of NGS counts were assigned for each pool. PWMs were generated based on the remaining peptides (aligned on the C‐termini) using WebLogo (Crooks et al, 2004).
(§4) However, there was no significant correlation of the actual read counts (selection “strength”) and the initial representation in the library, reflecting the strong selection during phage display (wt+mimetic: P‐value: 0.49, ρ = −0.08, mimetic only: P‐value: 0.069, ρ = −0.2, wt only: P‐value: 0.12, ρ = 0.17). Consequently, the amount of reads for each binder after phage display is not a function of the amount of input reads in the naïve library and no modeling based on the input library frequencies to score the interactions is necessary. To allow for comparison between replicate selections, we used the fraction of NGS reads within a certain set, instead of the absolute number of NGS reads, as the absolute numbers differ between different NGS batches.

Scribble PDZ1 = molecular target: T1, Scribble PDZ1 (Homo sapiens, UniProt Q14160); assay type: binding; conditions: bait Scribble PDZ1; mean of selections 1-3
T1 construct: human Scribble PDZ1 aa 719–829 in; made in house; host or cells: E. coli BL21 Gold (DE3)
Experimental: as §1, §2, §3, §4

DLG1 PDZ2 = molecular target: T2, DLG1 PDZ2 (Homo sapiens, UniProt Q12959); assay type: binding; conditions: mean of selections 1-3, bait DLG1 PDZ2
T2 construct: human DLG1 PDZ2 aa 311–407 in a modified pRSET vector 40; made in house; host or cells: E. coli BL21 Gold (DE3)
Experimental: as §1, §2, §3, §4

[1] = mean of selections 1-3, phosphomimetic peptide
[2] = mean of selections 1-3, wild type peptide

T2 sequence (Q12959 311-407): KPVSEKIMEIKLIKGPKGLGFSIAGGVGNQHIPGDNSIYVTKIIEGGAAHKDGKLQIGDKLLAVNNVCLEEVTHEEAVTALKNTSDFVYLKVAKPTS
T1 sequence (Q14160 719-829): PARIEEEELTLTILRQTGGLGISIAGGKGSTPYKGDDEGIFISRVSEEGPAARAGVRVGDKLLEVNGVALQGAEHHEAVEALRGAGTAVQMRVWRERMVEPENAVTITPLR

## DKEEFLTWL
Scribble PDZ3; mean over selections 1-3
  Mean fraction #NGS counts mimetic peptide / total count selection: 0.0001294
Scribble PDZ1
  Mean fraction #NGS counts mimetic peptide / total count selection: 0

## DKESFLTWL
Scribble PDZ3; mean over selections 1-3
  Mean fraction #NGS counts wt peptide / total counts selection: 0.01024
Scribble PDZ1
  Mean fraction #NGS counts wt peptide / total counts selection: 0.000274

## DSEILETVV
DLG1 PDZ2
  Mean fraction #NGS counts mimetic peptide / total count selection: 0

## DSSILSTVV
DLG1 PDZ2
  Mean fraction #NGS counts wt peptide / total counts selection: 0.0001102

## EIDLWETAL
Scribble PDZ3; mean over selections 1-3
  Mean fraction #NGS counts mimetic peptide / total count selection: 0.0004512

## EPTVHVTEL
Scribble PDZ3; mean over selections 1-3
  Mean fraction #NGS counts mimetic peptide / total count selection: 1.586e-5
Scribble PDZ1
  Mean fraction #NGS counts mimetic peptide / total count selection: 0.0001138

## ERLEYEETL
Scribble PDZ3; mean over selections 1-3
  Mean fraction #NGS counts mimetic peptide / total count selection: 0

## ERLEYETEL
Scribble PDZ3; [1]
  Mean fraction #NGS counts mimetic peptide / total count selection: 3.548e-5

## ERLEYETTL
Scribble PDZ3; [2]
  Mean fraction #NGS counts wt peptide / total counts selection: 0.0004529
Scribble PDZ3; mean over selections 1-3
  Mean fraction #NGS counts wt peptide / total counts selection: 0.0004529

## GEGGRQSVV
DLG1 PDZ2; phosphomimetic peptide
  Mean fraction #NGS counts mimetic peptide / total count selection: 9.343e-5

## GLMKRRSEV
DLG1 PDZ2
  Mean fraction #NGS counts mimetic peptide / total count selection: 6.06e-5

## GLMKRRSSV
DLG1 PDZ2
  Mean fraction #NGS counts wt peptide / total counts selection: 0

## GSGGRQSVV
DLG1 PDZ2; wild type peptide
  Mean fraction #NGS counts wt peptide / total counts selection: 0.003121

## HEIKQETAV
DLG1 PDZ2
  Mean fraction #NGS counts mimetic peptide / total count selection: 0.0002182

## HEIKQSTAV
DLG1 PDZ2; phosphomimetic peptide
  Mean fraction #NGS counts mimetic peptide / total count selection: 0

## HEKVFESAL
Scribble PDZ3; mean over selections 1-3
  Mean fraction #NGS counts mimetic peptide / total count selection: 0.07851
Scribble PDZ1
  Mean fraction #NGS counts mimetic peptide / total count selection: 0.0004614

## HEKVFTSAL
Scribble PDZ3; mean over selections 1-3
  Mean fraction #NGS counts wt peptide / total counts selection: 0.0001136
Scribble PDZ1
  Mean fraction #NGS counts wt peptide / total counts selection: 0

## HFESLESEV
DLG1 PDZ2
  Mean fraction #NGS counts mimetic peptide / total count selection: 0

## HFSSLESEV
DLG1 PDZ2
  Mean fraction #NGS counts wt peptide / total counts selection: 5.084e-5

## IEFTQTEQF
DLG1 PDZ2
  Mean fraction #NGS counts mimetic peptide / total count selection: 0.001455

## IEWLAFSVL
Scribble PDZ1
  Mean fraction #NGS counts mimetic peptide / total count selection: 4.38e-5

## IPLTRETTF
Scribble PDZ3; mean over selections 1-3
  Mean fraction #NGS counts mimetic peptide / total count selection: 0.0004175

## IPLTRTTTF
Scribble PDZ3; mean over selections 1-3
  Mean fraction #NGS counts wt peptide / total counts selection: 0

## ISFTQTSQF
DLG1 PDZ2
  Mean fraction #NGS counts wt peptide / total counts selection: 6.749e-6

## ISWLAFSVL
Scribble PDZ1
  Mean fraction #NGS counts wt peptide / total counts selection: 0

## ISYRREEAI
Scribble PDZ3; mean over selections 1-3
  Mean fraction #NGS counts mimetic peptide / total count selection: 0

## ISYRRESAI
Scribble PDZ3; mean over selections 1-3
  Mean fraction #NGS counts wt peptide / total counts selection: 0.0002548
DLG1 PDZ2
  Mean fraction #NGS counts mimetic peptide / total count selection: 0
  Mean fraction #NGS counts wt peptide / total counts selection: 1.436e-5

## KEEPFLTWL
Scribble PDZ3; mean over selections 1-3
  Mean fraction #NGS counts mimetic peptide / total count selection: 0.001054

## KKRMVEEPL
Scribble PDZ3; mean over selections 1-3
  Mean fraction #NGS counts mimetic peptide / total count selection: 0

## KKRMVESPL
Scribble PDZ3; mean over selections 1-3
  Mean fraction #NGS counts wt peptide / total counts selection: 0.000138

## KLSEIESDV
Scribble PDZ3; mean over selections 1-3
  Mean fraction #NGS counts mimetic peptide / total count selection: 6.057e-6
DLG1 PDZ2
  Mean fraction #NGS counts mimetic peptide / total count selection: 0

## KSEPFLTWL
Scribble PDZ3; mean over selections 1-3
  Mean fraction #NGS counts wt peptide / total counts selection: 0.002017

## KYVDAETEL
Scribble PDZ3; [1]
  Mean fraction #NGS counts mimetic peptide / total count selection: 0.0004194

## KYVDAETSL
Scribble PDZ3; [2]
  Mean fraction #NGS counts wt peptide / total counts selection: 0.0001259

## LAPNIIEQL
Scribble PDZ1
  Mean fraction #NGS counts mimetic peptide / total count selection: 2.8202e-5

## LAPNIISQL
Scribble PDZ1
  Mean fraction #NGS counts wt peptide / total counts selection: 0.000119

## LKSGRDSTV
DLG1 PDZ2
  Mean fraction #NGS counts mimetic peptide / total count selection: 0
  Mean fraction #NGS counts wt peptide / total counts selection: 0.0003449

## LRLQSETEV
DLG1 PDZ2
  Mean fraction #NGS counts mimetic peptide / total count selection: 7.62e-5

## LRLQSETSV
DLG1 PDZ2
  Mean fraction #NGS counts wt peptide / total counts selection: 3.877e-6

## LSIEKEEKL
Scribble PDZ3; mean over selections 1-3
  Mean fraction #NGS counts mimetic peptide / total count selection: 3.894e-6

## LSIEKETKL
Scribble PDZ3; mean over selections 1-3
  Mean fraction #NGS counts wt peptide / total counts selection: 0.01518

## MKRLTETRL
Scribble PDZ3; mean over selections 1-3
  Mean fraction #NGS counts mimetic peptide / total count selection: 0.001041
Scribble PDZ1
  Mean fraction #NGS counts mimetic peptide / total count selection: 0.01768

Reference: publication PMC6100724, “Proteome‐wide analysis of phospho‐regulated PDZ domain interactions” (Molecular Systems Biology, 2018)
